Test results taken from patent US8497371B2, “Pipemidic acid derivative autotaxin inhibitors” (University of Memphis Research Foundation, priority 2009, dated 2013).

How the values were obtained:
human NPP6 = target: T1, human NPP6 (Homo sapiens, UniProt Q6UWR7); assay: Determination of NPP6 inhibition (pNPPC substrate); type: biochemical; conditions: 10 μM inhibitor
T1 construct: transfected with human NPP6ex^51 or human NPP7ex expression plasmids; made in house; host or cells: HEK293 cells, transient transfection, pcDNA3.1(+); unconcentrated conditioned medium (CM)
T1 sequence (Q6UWR7 23-419 limits assumed): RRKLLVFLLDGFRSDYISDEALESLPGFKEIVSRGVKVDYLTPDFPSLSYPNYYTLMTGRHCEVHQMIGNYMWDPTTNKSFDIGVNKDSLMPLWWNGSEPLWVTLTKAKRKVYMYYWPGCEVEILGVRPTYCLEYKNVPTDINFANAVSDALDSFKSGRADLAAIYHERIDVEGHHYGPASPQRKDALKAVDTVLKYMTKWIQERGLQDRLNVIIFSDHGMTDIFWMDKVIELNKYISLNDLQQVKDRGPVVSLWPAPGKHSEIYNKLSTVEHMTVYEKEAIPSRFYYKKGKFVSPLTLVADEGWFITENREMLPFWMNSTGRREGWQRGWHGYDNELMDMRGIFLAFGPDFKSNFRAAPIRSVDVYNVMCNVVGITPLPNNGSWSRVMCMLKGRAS
Experimental: (§1) Inhibitor selectivity was assayed using p-nitrophenylphosphoryl-choline (pNPPC) (Sigma-Aldrich, St. Louis, Mo.) as substrate for NPP6 and NPP7. The final volume (60 μL) included 20 μL (CM, NPP6 or CCM, NPP7, 20 μL inhibitor (10 μM including 1% DMSO) in assay buffer, and 20 μL pNPPC (10 mM, NPP6 or 1 NPP7) in assay buffer. NPP6 assay buffer contained 500 mM NaCl, 0.05% Triton X-100, 100 mM Tris-HCl (pH 9.0), whereas NPP7 assay buffer was comprised of 50 mM Tris HCl, pH 8.5, 150 mM NaCl, and 10 mM taurocholic acid. However, unlike the published methods, EDTA was not added to the NPP7 assay buffer. All assays were performed in 96-well, half area plates (Corning Inc., Lowell, Mass.) at 37° C. with data collected at 2 minute intervals using a Synergy2 absorbance plate reader (BioTek, Winooski, Vt.). Results are shown at the one hour time point, when all absorbance changes as a function of time were linear. Readings were normalized to vehicle control after subtraction of absorbance in the absence of CM or CCM. Data are shown as the mean±S.D. of at least three wells. All experiments were repeated twice and representative results are shown.
(§2) Assays were performed with CM or CCM from HEK293 cells transiently transfected with NPP6 and 7 expression plasmids, respectively. HEK293 cells were seeded in Dulbecco's modified Eagle's medium (DMEM) containing 10% fetal bovine serum, 100 U/ml penicillin, 100 μg/ml streptomycin (Hyclone, Logan, Utah), and 2 mM L-glutamine. HEK293 cells were grown overnight at 37° C. under 5% CO2 to 80% confluence. The cells were then transfected with human NPP6ex^51 or human NPP7ex expression plasmids in the pcDNA3.1(+) mammalian vector in the presence of Polyfect Transfection Reagent (Hyclone, Logan, Utah). Six hours after transfection, the culture medium was changed to serum free DMEM containing L-glutamine and cells were incubated for 48 hours. Expressed protein was collected (NPP6 and NPP7) and concentrated ˜10×(NPP7) using 10 kDa molecular weight cutoff filters (Millipore, Beverly, Mass.) in an Amicon pressure cell (Millipore, Beverly, Mass.).

ATX [1] = target: T2, ATX (Homo sapiens, UniProt Q13822); assay: ATX inhibition assay with FS-3 substrate; type: biochemical; parameters: conditioned serum-free medium (CCM) from MDA-MB-435 cells as the source of ATX; endogenous in cells; host or cells: MDA-MB-435 cells (about 10x concentrated serum-free conditioned medium); conditions: for % Response at 10 μM (FS-3): 10 μM compound, FS-3 hydrolysis normalized to vehicle control (low = strong inhibition), mean ± S.D.; for single dose response comparison by aromatic substituent and position: Table 2, same values as % Response at 10 μM; for inhibition at 10 µM: single dose 10 μM, % inhibition, read-out: inhibition of ATX-mediated hydrolysis of FS-3
ATX [2] = target: T2, ATX; conditions: for Inhibition Mechanism: FS-3 substrate
human NPP7 = target: T3, human NPP7 (Homo sapiens, UniProt Q6UWV6); assay: Determination of NPP7 inhibition (pNPPC substrate); type: biochemical; conditions: 10 μM inhibitor
T3 construct: transfected with human NPP6ex^51 or human NPP7ex expression plasmids; made in house; host or cells: HEK293 cells, transient transfection, pcDNA3.1(+); conditioned medium concentrated about 10x (CCM)
T3 sequence (Q6UWV6 22-433 limits assumed): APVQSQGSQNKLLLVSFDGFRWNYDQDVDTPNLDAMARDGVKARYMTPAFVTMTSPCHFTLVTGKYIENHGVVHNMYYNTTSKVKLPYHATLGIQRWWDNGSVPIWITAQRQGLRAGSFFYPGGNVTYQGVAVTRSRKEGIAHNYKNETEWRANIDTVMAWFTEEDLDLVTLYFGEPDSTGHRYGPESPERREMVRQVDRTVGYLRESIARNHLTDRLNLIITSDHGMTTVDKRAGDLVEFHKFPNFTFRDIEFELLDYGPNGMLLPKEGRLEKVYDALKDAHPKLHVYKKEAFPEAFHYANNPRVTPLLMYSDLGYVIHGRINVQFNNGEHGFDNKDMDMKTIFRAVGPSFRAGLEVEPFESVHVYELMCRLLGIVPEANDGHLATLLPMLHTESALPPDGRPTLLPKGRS
Experimental: as §1, §2

ATX [3] = target: T2, ATX; assay: biochemical
[4] = Ki (μM), FS-3 substrate, for mixed mode Ki=IC50 assumed

Row | % Response at 10 μM (FS-3) (ATX [1]) [%] | single dose response comparison by aromatic substituent and position (ATX [1]) | inhibition at 10 µM (ATX [1]) [%] | mechanism of ATX inhibition (ATX [2]) | Inhibition Mechanism (ATX [2]) | Ki (ATX [3]; Ki) [µM] | Ki (ATX [3]; [4]) [µM] | IC50 (ATX [1]; FS-3 substrate) [µM] | Ki (ATX [3]; Ki (nM), competitive inhibitors) [µM] | IC50 (ATX [1]; Substrate FS-3 (1 μM)) [µM] | Compound | effect on activity of NPP6 (human NPP6) | effect on activity of NPP7 (human NPP7) | potency relative to the lead compound (ATX [2])
1 | 8.6 ± 0.9 | 8.6 ± 0.9 | ≥ 50 | uncompetitive | Uncompetitive |  |  |  |  |  | CCn1cc(C(=O)O)c(=O)c2cnc(N3CCN(C(=S)Nc4cccc(I)c4)CC3)nc21 [Compound 29, 2-(4-{[(3-iodophenyl)amino]carbonothioyl}-1-piperazinyl)-8-ethyl-5-oxo-5,8-dihydropyrido[2,3-d]pyrimidine-6-carboxylic acid] | None of the compounds affected the activity | None of the compounds affected the activity | 
2 | 30.4 ± 1.3 |  | ≥ 50 | mixed-mode | Mixed | 1.7 to 13.5 | 9 | 9 |  |  | CCn1cc(C(=O)O)c(=O)c2cnc(N3CCN(C(=S)Nc4cc(C)cc(C)c4)CC3)nc21 [Compound 22, 2-(4-{[(3,5-dimethylphenyl)amino]carbonothioyl}-1-piperazinyl)-8-ethyl-5-oxo-5,8-dihydropyrido[2,3-d]pyrimidine-6-carboxylic acid] | None of the compounds affected the activity | None of the compounds affected the activity | as potent as or significantly less potent than the lead
3 | 32.7 ± 1.3 | 32.7 ± 1.3 | ≥ 50 | mixed-mode | Mixed |  |  |  |  |  | CCn1cc(C(=O)O)c(=O)c2cnc(N3CCN(C(=S)Nc4ccc(I)cc4)CC3)nc21 [Compound 3, 2-(4-{[(4-iodophenyl)amino]carbonothioyl}-1-piperazinyl)-8-ethyl-5-oxo-5,8-dihydropyrido[2,3-d]pyrimidine-6-carboxylic acid] | None of the compounds affected the activity | None of the compounds affected the activity | 
4 | 0.3 ± 0.6 | 0.3 ± 0.6 |  | competitive | Competitive | 0.03 |  | 0.9 ± 0.3 | 0.03 to 0.43 | 0.9 ± 0.3 | CCn1cc(C(=O)O)c(=O)c2cnc(N3CCN(C(=S)Nc4cccc(C(F)(F)F)c4)CC3)nc21 [Compound 11, 2-(4-{[(3-trifluoromethylphenyl)amino]carbonothioyl}-1-piperazinyl)-8-ethyl-5-oxo-5,8-dihydropyrido[2,3-d]pyrimidine-6-carboxylic acid] | None of the compounds affected the activity | None of the compounds affected the activity | at least as potent as the lead compound
5 | 42.4 ± 0.9 | 42.4 ± 0.9 | ≥ 50 | mixed-mode | Mixed | 1.7 to 13.5 | 10.7 | 10.7 |  |  | CCn1cc(C(=O)O)c(=O)c2cnc(N3CCN(C(=S)Nc4ccc(Cl)cc4)CC3)nc21 [Compound 28, 2-(4-{[(4-chlorophenyl)amino]carbonothioyl}-1-piperazinyl)-8-ethyl-5-oxo-5,8-dihydropyrido[2,3-d]pyrimidine-6-carboxylic acid] | None of the compounds affected the activity | None of the compounds affected the activity | as potent as or significantly less potent than the lead
6 | 49.9 ± 1.5 |  | ≥ 50 |  |  |  |  | 16.1 ± 4 |  |  | CCn1cc(C(=O)O)c(=O)c2cnc(N3CCN(C(=S)Nc4ccc(C)cc4)CC3)nc21 [Compound 27, 2-(4-{[(4-methylphenyl)amino]carbonothioyl}-1-piperazinyl)-8-ethyl-5-oxo-5,8-dihydropyrido[2,3-d]pyrimidine-6-carboxylic acid] | None of the compounds affected the activity | None of the compounds affected the activity | 
7 | 40.5 ± 1.0 | 40.5 ± 1.0 | ≥ 50 |  |  |  |  | 16.1 ± 4.5 |  |  | CCn1cc(C(=O)O)c(=O)c2cnc(N3CCN(C(=S)Nc4cccc(F)c4)CC3)nc21 [Compound 25, 2-(4-{[(3-fluorophenyl)amino]carbonothioyl}-1-piperazinyl)-8-ethyl-5-oxo-5,8-dihydropyrido[2,3-d]pyrimidine-6-carboxylic acid] | None of the compounds affected the activity | None of the compounds affected the activity | 
8 | 48.9 ± 1.1 | 48.9 ± 1.1 | ≥ 50 |  |  |  |  | 17.7 |  |  | CCn1cc(C(=O)O)c(=O)c2cnc(N3CCN(C(=S)Nc4ccc(F)cc4)CC3)nc21 [Compound 23, 2-(4-{[(4-fluorophenyl)amino]carbonothioyl}-1-piperazinyl)-8-ethyl-5-oxo-5,8-dihydropyrido[2,3-d]pyrimidine-6-carboxylic acid] | None of the compounds affected the activity | None of the compounds affected the activity | 
9 | 40.9 ± 1.3 | 40.9 ± 1.3 | ≥ 50 |  |  |  |  | 17.7 ± 0.3 |  |  | CCn1cc(C(=O)O)c(=O)c2cnc(N3CCN(C(=S)Nc4cccc(OC)c4)CC3)nc21 [Compound 19, 2-(4-{[(3-methoxyphenyl)amino]carbonothioyl}-1-piperazinyl)-8-ethyl-5-oxo-5,8-dihydropyrido[2,3-d]pyrimidine-6-carboxylic acid] | None of the compounds affected the activity | None of the compounds affected the activity | 
